Measured values reported in article PMC11477289, “Low-Basicity 5-HT6 Receptor Ligands from the Group of Cyclic Arylguanidine Derivatives and Their Antiproliferative Activity Evaluation” (International Journal of Molecular Sciences, 2024).
≈ marks a conversion by molar mass, not a printed value.

Tests used:
[1] = tested on: Danio rerio; details: in vivo
Protocol: Selected compounds were evaluated for their cardiotoxicity on the Danio rerio experimental model following the OECD 236 test. […] To explore specific toxic effects of tested compounds on the central nervous systems, locomotor activity in the Danio rerio experimental model was evaluated. Studying the reaction of zebrafish larvae to light and dark conditions can be a valuable method for assessing neurotoxicity in behavioral studies. […] This response is characterized by a rapid, coordinated movement, often involving a quick burst of swimming or a change in direction. In our experimental model, we changed light into dark conditions. […] This behavior helps them avoid potential predators and maintain optimal environmental conditions.
To determine the toxicity of the compounds [66], the fish embryo toxicity (FET) test was performed on zebrafish (Danio rerio) according to OECD Test 236. […] At the end of the exposure period (96 hpf—hours postfertilization), acute toxicity was determined based on a positive outcome in any of the four visual indicators of lethality, including the coagulation of fertilized eggs, lack of somite formation, lack of detachment of the tailbud from the yolk sac, and lack of heartbeat. The value of LD50 was calculated. Heartbeats were recorded to observe cardiotoxic effects. […]

[2] = Fish embryo toxicity (FET) test, OECD 236; details: zebrafish (Danio rerio), in vivo, after 96 h of intoxication
Protocol: To determine the toxicity of the compounds [66], the fish embryo toxicity (FET) test was performed on zebrafish (Danio rerio) according to OECD Test 236. The collected embryos were transferred to a Petri dish with an E3 medium, consisting of 5 mM NaCl; 0.33 mM MgCl2; 0.33 mM CaCl2; and 0.17 mM KCl, and placed in 6-well plates, 10 embryos per well. Stock solutions were prepared in DMSO. The range of different concentrations of the solutions was prepared by dissolving stock solutions in the E3 medium each time directly before addition to the wells. The solutions were changed once daily, and the embryos were maintained in the incubator at 28.5 °C. At the end of the exposure period (96 hpf—hours postfertilization), acute toxicity was determined based on a positive outcome in any of the four visual indicators of lethality, including the coagulation of fertilized eggs, lack of somite formation, lack of detachment of the tailbud from the yolk sac, and lack of heartbeat. The value of LD50 was calculated. Heartbeats were recorded to observe cardiotoxic effects. A dose–response curve was generated using Prism 8.0.1 (GraphPad Software).
Figure 3 (A) Toxicity of PR 68 and PR 73 in vivo in Danio reiro embryo toxicity test. […] Cardiotoxicity of (B) PR 68 and (C) PR 73 measured as heart rate (beats per minute) on 5 dpf Danio rerio larvae, E3—fish embryo growth medium. […]

[3] = Affinity to phospholipids, IAM column (CHI IAM); type: physicochemical; details: IAM.PC.DD2 column, pH 7.4
[4] = PAMPA permeability test; type: in vitro ADME
Protocol: This test allows the determination of the compound’s passive diffusion through biological membranes.
Precoated PAMPA Plate System Gentest was obtained from Corning (Tewksbury, MA, USA). Test compounds and caffeine solutions (200 µM) were prepared in a PBS buffer (pH = 7.4) and then added to the PAMPA plate. The plate was incubated at room temperature for 5 h without agitation. Then, 150 µL was aspirated from both acceptor (A) and donor (D) wells and then diluted with a 150 µL internal standard (IS) solution. The concentrations of the tested compounds in wells A and D were estimated using an LC/MS Waters ACQUITY™ TQD system with a TQ detector (Waters, Milford, CT, USA). The values of Pe were estimated according to the exact formulas provided by Corning and previously described in the literature.
4. Absorption – PAMPA permeability test
*Permeability coefficient. Compound is permeable if Pe≥1.5×10-6 cm/s
**CFN = caffeine, well-permeable control
UPLC of Caffeine solution in PBS (pH=7.4) after 5h of incubation: acceptor well
(above), donor well (below). IS – internal standard.
UPLC of PR 68 solution in PBS (pH=7.4) after 5h of incubation: acceptor well (above),
donor well (below). IS – internal standard. […]

[5] = tested on: HepG2 human hepatoma cell line; assay: Hepatotoxicity, MTS assay; type: cell-based; details: 1–10 µM, 48 h
Protocol: The safety profile was estimated in the hepatotoxicity assay in the hepatoma HepG2 cell line (Figure 2B).
Hepatotoxicity was evaluated employing an MTS assay with a HepG2 human hepatoma cell line (ATCC: HB-8065). In brief, the cells were incubated for 48 h in 96-well plates with PR 68 (concentration range: 1–100 μM), or doxorubicin (DX, 1 µM; Sigma-Aldrich), which served as a control. Compounds were tested in a single experiment in quadruplicate. The absorbance in the MTS assay was measured by the Spark Cyto microplate reader (Tecan, Männedorf, Switzerland).

[6] = molecular target: T1, CYP2D6 (Homo sapiens, UniProt P10635); assay: CYP2D6 P450-Glo assay (drug–drug interactions); type: biochemical; details: 0.01–25 µM
T1 construct: purchased Promega
T1 sequence (P10635 whole entry): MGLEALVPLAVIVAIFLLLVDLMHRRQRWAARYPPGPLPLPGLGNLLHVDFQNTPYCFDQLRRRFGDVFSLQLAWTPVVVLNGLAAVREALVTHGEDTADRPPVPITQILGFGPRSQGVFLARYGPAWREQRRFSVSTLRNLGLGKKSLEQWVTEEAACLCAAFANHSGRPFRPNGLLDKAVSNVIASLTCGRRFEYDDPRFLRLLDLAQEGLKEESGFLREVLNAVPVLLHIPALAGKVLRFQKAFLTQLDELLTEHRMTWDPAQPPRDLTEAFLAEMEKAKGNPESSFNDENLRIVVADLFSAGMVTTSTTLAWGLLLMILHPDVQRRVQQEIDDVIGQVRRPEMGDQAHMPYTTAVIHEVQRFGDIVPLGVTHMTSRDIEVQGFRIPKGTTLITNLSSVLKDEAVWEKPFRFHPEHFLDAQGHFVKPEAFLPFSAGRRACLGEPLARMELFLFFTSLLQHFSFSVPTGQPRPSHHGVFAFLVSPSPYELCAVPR
Protocol: The potential risk of drug–drug interactions (DDIs) was examined in luminescence-based CYP3A4 and CYP2D6 P450-Glo assays (Promega, Madison, WI, USA) (Figure 2A,B).
The influence on CYP3A4 and CYP2D6 activity by ligands was analyzed with luminescent CYP3A4 P450-Glo and CYP2D6 P450-Glo^TM (Madison, WI, USA). The compounds were tested in triplicate. The bioluminescence signal was measured with a microplate reader, Spark Cyto (Tecan, Männedorf, Switzerland), in the luminescence mode. Compounds were tested in triplicate in the range of 0.01–25 µM for both isoforms’ P450 cytochrome. KE and QD were used as the reference compounds for CYP3A4 and CYP2D6, respectively.

SMILES | cardiotoxicity (heart rate) [1] | LC50 at 96 h [2] | CHI IAM [3] | membrane retention R ([4]; PAMPA) | Papp at 5 h, 200 µM ([4]; PAMPA, PBS pH 7.4, 5 h, room temperature, read-out: PAMPA Pe) | PAMPA Pe ([4]; PBS pH 7.4, 5 h, room temperature) | hepatotoxicity, HepG2 viability [5] | drug–drug interactions, CYP2D6 activity [6]
CC1NC(NS(=O)(=O)c2cccc3ccccc23)=Nc2cccc(F)c21 (centres unmarked) [PR 73, N -(5-fluoro-4-methyl-3,4-dihydroquinazolin-2-yl)naphthalene-1-sulfonamide] | do not show cardiotoxic properties | 10.2 µg/mL (≈ 27.5 µM) | 42.3 | – | – | – | – | –
CC1NC(NS(=O)(=O)c2cccc3ccccc23)=Nc2cccc(Cl)c21 (centres unmarked) [PR 68, N -(5-chloro-4-methyl-3,4-dihydroquinazolin-2-yl)naphthalene-1-sulfonamide] | do not show cardiotoxic properties | 7.82 µg/mL (≈ 20.3 µM) | 45.8 | 0.65 | 1.72 ×10⁻⁶ cm/s | 1.72 10^−6 cm/s | did not exhibit hepatotoxic properties | should not exhibit drug–drug interactions
